Assay results published in patent US20220395553A1, “CXCR4 ANTAGONIST PEPTIDES” (COHBAR, INC., priority 2019, published 2022).
Square brackets hold non-standard residues; d marks the D form. Peptide text beside a SMILES is read from it.

Tests used:
[1] = tested on: Jurkat cells; assay: CXCL12 mediated cell migration, Jurkat cells; type: cell-based, human; details: 1.1 μM test article, 100 ng/ml CXCL12, 1 hour
Method: The assay was performed following a protocol similar to that described by Peng, et al., Mol Cancer Ther., 14480-90 (2015), incorporated herein by reference. Peptides were initially prepared as 1 mM stock in H2O and tested at a final concentration of 1.1 μM. […] Jurkat cells were resuspended in serum free media (RPMI+GlutaMax; Gibco/Thermo Fisher Scientific; Gaithersburg, Md.) containing 0.5% bovine serum albumin at density of 5×10^6 cells/ml. […] Cells (250,000 cells in 50 μl) supplemented with the appropriate treatments were seeded on to the upper chamber of a 96-well 5 μm HTS Transwell filter insert (Corning/Costar; Tewksbury, Mass.). […] Filter inserts were immediately placed on top of 96-well receiver trays and placed at 37° C. in a humidified atmosphere of 5% CO2/95% air for 1 hour. Following the 1 hour incubation period the filter inserts were carefully removed and the migration of cells across the filter into the bottom chamber (receiver wells) was determined by measuring ATP levels using Cell TiterGlo 2.0, according to manufacturer's instructions (Promega; Madison, Wis.); luminescence was measured using a Cytation 3 plate reader (BioTek; Winooski, Vt.).

[2] = tested on: CXCR4/CXCL12 induced p-MEK; assay: CXCR4/CXCL12 induced p-MEK in Jurkat cells (ELISA); type: cell-based, human; details: 5 nM CXCL12, 5 min
Method: The assay was performed following a protocol similar to that described by Peng, et al., Mol Cancer Ther., 14 480-90 (2015), incorporated herein by reference. […] Jurkat cells were resuspended in standard growth media (RPMI+GlutaMax media; Gibco/Thermo Fisher Scientific; Gaithersburg, Md.) containing 10% FBS and 1% penicillin/streptomycin. Assays were performed using fresh or conditioned media (media cultured overnight in presence of Jurkat cells) to resuspend cells at density of 2×10^6 cells/ml and […] of cell suspension was immediately placed in 1.7 ml microfuge tubes. […] Following the 5 min incubation, cells were centrifuged at 1000×g for 4 min at 4° C. The supernatant was removed and the cells were rinsed with 1 ml of HBSS containing calcium and magnesium. The HBSS was removed and the cells were immediately lysed in 150 l of lysis buffer included with Phospho-MEK1 (Ser217/221) Sandwich ELISA kit (Cell Signaling Technology; Danvers, Mass.); lysis buffer was supplemented with 1 m M PMSF (Millipore-Sigma; Saint Louis, Mo.) and Halt protease/phosphatase inhibitor cocktail (Thermo-Fisher; Waltham, Mass.) prior to use. The samples were then placed on ice for 10 min and vortexed periodically. Following the lysis step, the samples were centrifuged at 12,500 rpm for 10 min at 4° C. p-MEK expression in each of the samples was then measure using Phospho-MEK1 (Ser217/221) Sandwich ELISA kit according to manufacturer's instructions. Absorbance was measured using a Cytation 3 plate reader at […] (BioTek; Winooski, Vt.).

[3] = biological target: T1, human CXCR4 (Homo sapiens, UniProt P61073); assay: IC50 for inhibition of CXCR4 activation, β-Arrestin recruitment (Example 22); type: cell-based; parameters: host or cells: C2C12 (mouse myoblast) CXCR4 β-Arrestin PathHunter cell line
Method: The assay was run with the DiscoverX protocol. β-Arrestin recruitment assays were performed by Eurofins-DiscoverX (Fremont, Calif.) using C2C12 CXCR4 β-Arrestin cell line (co-expressing ProLink tagged human CXCR4 and Enzyme Acceptor tagged β-Arrestin) and PathHunter detection kit. Peptides were initially prepared as 1 mM stock in H2O and tested in ten (10)-step concentration response curves using 3-fold dilution steps with 1 μM as highest concentration; a concentration range of 1 μM-0.05 nM was tested. C2C12 CXCR4 β-Arrestin cells were seed onto 384-well plates in standard medium. […] At the end of the 90 min incubation period, β-Arrestin recruitment in response to various treatments was quantified using a chemiluminescent complementation reporter assay to measure association of tagged human […] (ProLink tag) and tagged β-Arrestin (Enzyme Acceptor tag).

[4] = biological target: T1, human CXCR4; assay: CXCR4/CXCL12 binding, HTRF format, single concentration (Example 23); parameters: host or cells: HEK293 (Tag-lite CXCR4 cells, frozen aliquots, transient expression); details: 15 nM CXCR4R fluorescent probe, 3 hours, HEK293 Tag-lite CXCR4 cells
How it was run: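 Tag-lite CXCR4 cells were exposed to peptide at 400 nM final with 15 nM (EC80) fluorescent CXCR4 probe for 3 h at room temperature. HTRF was read, and the 665/620 nm ratio ×10,000 measured probe bound to terbium-labelled receptor.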

T1 sequence (P61073 whole entry): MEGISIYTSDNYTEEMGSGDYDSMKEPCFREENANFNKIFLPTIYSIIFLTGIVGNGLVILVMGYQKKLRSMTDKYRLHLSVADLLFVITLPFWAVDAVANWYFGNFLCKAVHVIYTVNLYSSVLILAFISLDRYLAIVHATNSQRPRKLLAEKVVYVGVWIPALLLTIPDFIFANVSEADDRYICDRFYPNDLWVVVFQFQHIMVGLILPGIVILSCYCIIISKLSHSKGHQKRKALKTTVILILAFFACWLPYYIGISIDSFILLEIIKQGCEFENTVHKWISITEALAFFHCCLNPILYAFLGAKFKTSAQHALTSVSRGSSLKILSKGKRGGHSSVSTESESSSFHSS

SMILES | IC50 [3] | Percent Inhibition of CXCR4/CXCL12 Binding (400 nM peptide) [4] | Percent Inhibition of CXCL12 Mediated Migration (1.1 μM Test Article) [1] | Percent Inhibition of CXCR4/CXCL12 Induced p-MEK (100 nM Test Article) [2] | Percent Inhibition of CXCR4/CXCL12 Induced p-MEK (1 μM Test Article) [2]
CC(C)C[C@H](NC(=O)[C@H](CO)NC(=O)[C@H](CO)NC(=O)[C@H](CCCNC(=N)N)NC(=O)[C@@H](NC(=O)[C@H](CO)NC(=O)[C@H](Cc1c[nH]cn1)NC(=O)[C@H](Cc1c[nH]cn1)NC(=O)[C@H](Cc1ccccc1)NC(=O)[C@H](CCCNC(=N)N)NC(=O)[C@H](CCCNC(=N)N)NC(=O)[C@@H](N)CC(C)C)C(C)C)C(=O)N[C@@H](CCCNC(=N)N)C(=O)N1CCC[C@H]1C(=O)N[C@@H](Cc1ccc(O)cc1)C(=O)N[C@H](C(=O)N[C@@H](CCCCN)C(=O)O)[C@@H](C)O [compound 53] (H-LRRFHHSVRSSLRPYTK-OH; N-terminus and C-terminus assumed) | 3 nM | 5% | 59% | 62% | 98%
CC(C)C[C@H](NC(=O)[C@H](CO)NC(=O)[C@@H](NC(=O)[C@H](CCCNC(=N)N)NC(=O)[C@@H](C)NC(=O)[C@H](CO)NC(=O)[C@H](Cc1c[nH]cn1)NC(=O)[C@H](Cc1c[nH]cn1)NC(=O)[C@H](Cc1ccc(O)cc1)NC(=O)[C@H](CCCNC(=N)N)NC(=O)[C@H](CCC(=O)O)NC(=O)[C@@H](N)CC(C)C)[C@@H](C)O)C(=O)N[C@@H](CCCNC(=N)N)C(=O)N1CCC[C@H]1C(=O)N[C@@H](Cc1ccc(O)cc1)C(=O)N[C@H](C(=O)N[C@@H](CCCCN)C(=O)O)[C@@H](C)O [compound 76] (H-LERYHHS[dA]RTSLRPYTK-OH; N-terminus and C-terminus assumed) | 6 nM | 75% |  | 5% | 44%
CC(C)C[C@H](NC(=O)[C@@H](NC(=O)[C@H](CO)NC(=O)[C@H](CCCNC(=N)N)NC(=O)[C@@H](NC(=O)[C@H](CO)NC(=O)[C@H](Cc1c[nH]cn1)NC(=O)[C@H](Cc1c[nH]cn1)NC(=O)[C@H](Cc1ccc(O)cc1)NC(=O)[C@H](CCCNC(=N)N)NC(=O)[C@H](CCCNC(=N)N)NC(=O)[C@@H](N)CC(C)C)C(C)C)[C@@H](C)O)C(=O)N[C@@H](CCCNC(=N)N)C(=O)N1CCC[C@H]1C(=O)N[C@@H](Cc1ccc(O)cc1)C(=O)N[C@H](C(=O)N[C@@H](CCCCN)C(=O)O)[C@@H](C)O [compound 71] (H-LRRYHHSVRSTLRPYTK-OH; N-terminus and C-terminus assumed) | 3 nM | 29% |  | 56% | 94%
CC(C)C[C@H](NC(=O)[C@H](CO)NC(=O)[C@@H](NC(=O)[C@H](CCCNC(=N)N)NC(=O)[C@@H](NC(=O)[C@H](CO)NC(=O)[C@H](Cc1c[nH]cn1)NC(=O)[C@H](Cc1c[nH]cn1)NC(=O)[C@H](Cc1ccc(O)cc1)NC(=O)[C@H](CCCNC(=N)N)NC(=O)[C@H](CCCNC(=N)N)NC(=O)[C@@H](N)CC(C)C)C(C)C)[C@@H](C)O)C(=O)N[C@@H](CCCNC(=N)N)C(=O)N1CCC[C@H]1C(=O)N[C@@H](Cc1ccc(O)cc1)C(=O)N[C@H](C(=O)N[C@@H](CCCCN)C(=O)O)[C@@H](C)O [compound 70] (H-LRRYHHSVRTSLRPYTK-OH; N-terminus and C-terminus assumed) |  | 11% | 21% | 57% | 93%
CC(C)C[C@H](NC(=O)[C@H](CO)NC(=O)[C@H](CO)NC(=O)[C@H](CCCNC(=N)N)NC(=O)[C@@H](NC(=O)[C@H](CO)NC(=O)[C@H](Cc1c[nH]cn1)NC(=O)[C@H](Cc1c[nH]cn1)NC(=O)[C@H](Cc1ccc(O)cc1)NC(=O)[C@H](CCCNC(=N)N)NC(=O)[C@H](CCC(=O)O)NC(=O)[C@@H](N)CC(C)C)C(C)C)C(=O)N[C@@H](CCCNC(=N)N)C(=O)N1CCC[C@H]1C(=O)N[C@@H](Cc1ccc(O)cc1)C(=O)N[C@H](C(=O)O)[C@@H](C)O [compound 18] (H-LERYHHSVRSSLRPYT-OH; N-terminus and C-terminus assumed) |  | 57% | 66% | 45% | 78%

Now from value to compound, other results behind:

IC50 [3] | Percent Inhibition of CXCR4/CXCL12 Binding (400 nM peptide) [4] | SMILES | Percent Inhibition of CXCL12 Mediated Migration (1.1 μM Test Article) [1] | Percent Inhibition of CXCR4/CXCL12 Induced p-MEK (100 nM Test Article) [2] | Percent Inhibition of CXCR4/CXCL12 Induced p-MEK (1 μM Test Article) [2]
> 1000 nM | −17% | CC(C)C[C@H](NC(=O)[C@H](CO)NC(=O)[C@H](CO)NC(=O)[C@H](CCCNC(=N)N)NC(=O)[C@@H](NC(=O)[C@H](CO)NC(=O)[C@H](Cc1c[nH]cn1)NC(=O)[C@H](Cc1c[nH]cn1)NC(=O)[C@H](Cc1ccc(O)cc1)NC(=O)[C@H](CCCNC(=N)N)NC(=O)[C@H](CCC(=O)O)NC(=O)[C@@H](C)N)C(C)C)C(=O)N[C@@H](CCCNC(=N)N)C(=O)N1CCC[C@H]1C(=O)N[C@@H](Cc1ccc(O)cc1)C(=O)N[C@H](C(=O)N[C@@H](CCCCN)C(=O)O)[C@@H](C)O [compound 34] (H-[dA]ERYHHSVRSSLRPYTK-OH; N-terminus and C-terminus assumed) |  | −1% | 2%
5 nM | 6% | CC(C)C[C@H](NC(=O)[C@H](CO)NC(=O)[C@H](CO)NC(=O)[C@H](CCCNC(=N)N)NC(=O)[C@@H](NC(=O)[C@H](CO)NC(=O)[C@H](Cc1c[nH]cn1)NC(=O)[C@H](Cc1c[nH]cn1)NC(=O)[C@H](Cc1ccc(O)cc1)NC(=O)[C@H](CCCNC(=N)N)NC(=O)[C@H](CCCNC(=N)N)NC(=O)[C@@H](N)CC(C)C)C(C)C)C(=O)N[C@@H](CCCNC(=N)N)C(=O)N1CCC[C@H]1C(=O)N[C@@H](Cc1ccc(O)cc1)C(=O)N[C@@H](CO)C(=O)N[C@@H](CCCCN)C(=O)O [compound 72] (H-LRRYHHSVRSSLRPYSK-OH; N-terminus and C-terminus assumed) |  | 8% | 86%
7 nM | 77% | CC(C)C[C@H](NC(=O)[C@H](CO)NC(=O)[C@H](CO)NC(=O)[C@H](CCCNC(=N)N)NC(=O)[C@@H](NC(=O)[C@H](CO)NC(=O)[C@H](Cc1c[nH]cn1)NC(=O)[C@H](Cc1c[nH]cn1)NC(=O)[C@H](Cc1ccc(O)cc1)NC(=O)[C@H](CCCNC(=N)N)NC(=O)[C@H](CCCNC(=N)N)NC(=O)[C@@H](C)N)C(C)C)C(=O)N[C@@H](CCCNC(=N)N)C(=O)N1CCC[C@H]1C(=O)N[C@@H](Cc1ccc(O)cc1)C(=O)N[C@H](C(=O)N[C@@H](CCCCN)C(=O)O)[C@@H](C)O [compound 33] (H-[dA]RRYHHSVRSSLRPYTK-OH; N-terminus and C-terminus assumed) |  | 7% | 42%
